Several values for one entry are separate records, joined by “and”; a condition that tells them apart may be missing. Equal entries are not always repeated.
Legend:
Assay in all cases: radiometric filter-binding kinase assay, Kinase HotSpot
Conditions in all cases: compound 0.5 µM; ATP 10 µM
[1] = molecular target: CAMK2G (human) (UniProt Q13555)
[2] = molecular target: DDR2 (human) (UniProt Q16832)
[3] = molecular target: CDK9 CCNT1 (human) (UniProt P50750+O60563)
[4] = molecular target: SLK (human) (UniProt Q9H2G2)
[5] = molecular target: GRK5 (human) (UniProt P34947)
[6] = molecular target: TEC (human) (UniProt P42680)
[7] = molecular target: EPHB4 (human) (UniProt P54760)
[8] = molecular target: SRC (human) (UniProt P12931)
[9] = molecular target: CDK6 CCND1 (human) (UniProt Q00534+P24385)
[10] = molecular target: PAK7 (human) (UniProt Q9P286)
[11] = molecular target: MYLK (human) (UniProt Q15746)
[12] = molecular target: CDK5 CDK5R1 p35 (human) (UniProt Q00535+Q15078)
[13] = molecular target: DMPK (human) (UniProt Q09013)
[14] = molecular target: MAPK13 (human) (UniProt O15264)
[15] = molecular target: PRKCG (human) (UniProt P05129)
[16] = molecular target: STK33 (human) (UniProt Q9BYT3)
[17] = molecular target: FGFR4 (human) (UniProt P22455)
[18] = molecular target: EPHA8 (human) (UniProt P29322)
[19] = molecular target: PLK2 (human) (UniProt Q9NYY3)
[20] = molecular target: SRPK3 (human) (UniProt Q9UPE1)
[21] = molecular target: STK25 (human) (UniProt O00506)
[22] = molecular target: HIPK3 (human) (UniProt Q9H422)
[23] = molecular target: PRKACA (human) (UniProt P17612)
[24] = molecular target: GSK3A (human) (UniProt P49840)
[25] = molecular target: HIPK1 (human) (UniProt Q86Z02)
[26] = molecular target: CSNK1G1 (human) (UniProt Q9HCP0)
[27] = molecular target: MATK (human) (UniProt P42679)
[28] = molecular target: NLK (human) (UniProt Q9UBE8)
[29] = molecular target: FGFR2 (human) (UniProt P21802)
[30] = molecular target: SGK2 (human) (UniProt Q9HBY8)
[31] = molecular target: PAK2 (human) (UniProt Q13177)
[32] = molecular target: PLK3 (human) (UniProt Q9H4B4)
[33] = molecular target: PRKG1 (human) (UniProt Q13976)
[34] = molecular target: MAPK14 (human) (UniProt Q16539)
[35] = molecular target: IRAK1 (human) (UniProt P51617)
[36] = molecular target: EPHA7 (human) (UniProt Q15375)
[37] = molecular target: AKT2 (human) (UniProt P31751)
[38] = molecular target: TTK (human) (UniProt P33981)
[39] = molecular target: BMX (human) (UniProt P51813)
[40] = molecular target: BLK (human) (UniProt P51451)
[41] = molecular target: INSR (human) (UniProt P06213)
[42] = molecular target: MELK (human) (UniProt Q14680)

HIPK1 (human), sequence (Q86Z02 whole entry, looked up): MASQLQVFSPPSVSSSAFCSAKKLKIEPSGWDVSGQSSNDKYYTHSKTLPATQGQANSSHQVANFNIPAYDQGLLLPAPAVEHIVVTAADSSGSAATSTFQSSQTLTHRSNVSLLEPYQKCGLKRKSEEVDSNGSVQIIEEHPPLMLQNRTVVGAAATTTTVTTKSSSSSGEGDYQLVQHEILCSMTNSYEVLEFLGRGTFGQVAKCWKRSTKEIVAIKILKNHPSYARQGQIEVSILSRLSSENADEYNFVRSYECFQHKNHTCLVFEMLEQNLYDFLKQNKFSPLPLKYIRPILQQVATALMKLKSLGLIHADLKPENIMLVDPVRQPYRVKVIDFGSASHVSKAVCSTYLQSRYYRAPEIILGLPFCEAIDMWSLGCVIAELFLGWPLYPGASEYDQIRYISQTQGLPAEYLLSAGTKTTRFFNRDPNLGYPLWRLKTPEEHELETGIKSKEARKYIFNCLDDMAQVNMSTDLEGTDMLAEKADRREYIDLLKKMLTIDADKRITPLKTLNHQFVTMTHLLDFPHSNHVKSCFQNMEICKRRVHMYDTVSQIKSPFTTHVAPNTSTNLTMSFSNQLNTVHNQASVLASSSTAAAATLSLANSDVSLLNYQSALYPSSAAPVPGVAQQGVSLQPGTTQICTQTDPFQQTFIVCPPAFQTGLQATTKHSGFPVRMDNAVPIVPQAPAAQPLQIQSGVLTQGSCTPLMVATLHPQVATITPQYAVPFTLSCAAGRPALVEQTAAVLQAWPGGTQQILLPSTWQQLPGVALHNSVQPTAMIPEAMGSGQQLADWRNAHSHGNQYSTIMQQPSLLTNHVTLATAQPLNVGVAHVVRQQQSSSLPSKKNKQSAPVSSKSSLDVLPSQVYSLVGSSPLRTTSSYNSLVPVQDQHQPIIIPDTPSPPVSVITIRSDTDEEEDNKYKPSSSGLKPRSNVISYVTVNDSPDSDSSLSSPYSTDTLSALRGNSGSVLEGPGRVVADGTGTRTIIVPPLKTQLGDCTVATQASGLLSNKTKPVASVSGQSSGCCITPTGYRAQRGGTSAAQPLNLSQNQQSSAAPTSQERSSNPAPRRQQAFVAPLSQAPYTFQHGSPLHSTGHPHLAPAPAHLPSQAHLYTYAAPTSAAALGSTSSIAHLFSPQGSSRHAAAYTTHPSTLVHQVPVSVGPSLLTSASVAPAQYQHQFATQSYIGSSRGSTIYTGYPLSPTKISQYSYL
CDK6 CCND1 (human), sequence (P24385 whole entry, looked up): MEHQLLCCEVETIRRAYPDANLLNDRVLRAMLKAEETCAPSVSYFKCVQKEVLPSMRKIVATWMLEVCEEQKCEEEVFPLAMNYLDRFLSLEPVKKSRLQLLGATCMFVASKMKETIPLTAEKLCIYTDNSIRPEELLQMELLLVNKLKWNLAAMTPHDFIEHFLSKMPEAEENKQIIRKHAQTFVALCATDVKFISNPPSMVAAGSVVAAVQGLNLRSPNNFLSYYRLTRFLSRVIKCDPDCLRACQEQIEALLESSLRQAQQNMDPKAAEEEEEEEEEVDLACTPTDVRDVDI
CDK6 CCND1 (human), sequence (Q00534 whole entry, looked up): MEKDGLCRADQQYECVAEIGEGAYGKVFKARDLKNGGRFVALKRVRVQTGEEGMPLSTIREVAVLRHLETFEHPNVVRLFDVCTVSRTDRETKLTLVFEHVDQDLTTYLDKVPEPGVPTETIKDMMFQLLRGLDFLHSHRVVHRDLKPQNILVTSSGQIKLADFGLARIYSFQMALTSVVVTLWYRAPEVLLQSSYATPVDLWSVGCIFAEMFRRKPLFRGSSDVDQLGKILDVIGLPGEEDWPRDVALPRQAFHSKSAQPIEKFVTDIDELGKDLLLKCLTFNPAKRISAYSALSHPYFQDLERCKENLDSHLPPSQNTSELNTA
IRAK1 (human), sequence (P51617 whole entry, looked up): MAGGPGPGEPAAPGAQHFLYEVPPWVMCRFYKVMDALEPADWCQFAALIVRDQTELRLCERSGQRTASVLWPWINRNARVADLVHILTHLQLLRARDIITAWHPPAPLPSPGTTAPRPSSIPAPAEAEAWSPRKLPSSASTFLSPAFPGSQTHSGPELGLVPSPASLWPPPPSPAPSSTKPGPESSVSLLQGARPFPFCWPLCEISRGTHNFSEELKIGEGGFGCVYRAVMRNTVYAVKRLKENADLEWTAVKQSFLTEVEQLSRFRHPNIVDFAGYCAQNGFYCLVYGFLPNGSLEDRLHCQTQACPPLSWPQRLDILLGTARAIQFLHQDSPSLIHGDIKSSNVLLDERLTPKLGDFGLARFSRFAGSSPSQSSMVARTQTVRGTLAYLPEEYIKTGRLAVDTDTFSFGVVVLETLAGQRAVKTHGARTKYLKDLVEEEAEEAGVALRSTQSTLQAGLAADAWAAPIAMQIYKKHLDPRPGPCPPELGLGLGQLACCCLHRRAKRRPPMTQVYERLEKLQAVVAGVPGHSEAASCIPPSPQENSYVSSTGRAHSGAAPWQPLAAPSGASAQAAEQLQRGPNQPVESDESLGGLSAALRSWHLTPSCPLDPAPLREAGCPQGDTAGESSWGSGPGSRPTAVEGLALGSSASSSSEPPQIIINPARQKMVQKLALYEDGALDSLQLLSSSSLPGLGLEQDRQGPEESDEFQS
AKT2 (human), sequence (P31751 whole entry, looked up): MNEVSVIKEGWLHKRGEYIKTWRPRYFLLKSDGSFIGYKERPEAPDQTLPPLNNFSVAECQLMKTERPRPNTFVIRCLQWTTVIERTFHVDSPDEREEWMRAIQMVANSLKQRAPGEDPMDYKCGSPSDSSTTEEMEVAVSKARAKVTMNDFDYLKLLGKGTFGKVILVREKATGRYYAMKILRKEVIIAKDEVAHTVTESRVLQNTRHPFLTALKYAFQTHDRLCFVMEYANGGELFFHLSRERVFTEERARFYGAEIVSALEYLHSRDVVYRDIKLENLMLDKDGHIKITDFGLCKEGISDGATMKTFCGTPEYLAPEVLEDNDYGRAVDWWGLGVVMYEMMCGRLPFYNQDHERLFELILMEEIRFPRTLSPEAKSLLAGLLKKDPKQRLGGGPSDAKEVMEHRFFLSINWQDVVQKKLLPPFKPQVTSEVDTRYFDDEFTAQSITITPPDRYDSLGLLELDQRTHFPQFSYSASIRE
DDR2 (human), sequence (Q16832 whole entry, looked up): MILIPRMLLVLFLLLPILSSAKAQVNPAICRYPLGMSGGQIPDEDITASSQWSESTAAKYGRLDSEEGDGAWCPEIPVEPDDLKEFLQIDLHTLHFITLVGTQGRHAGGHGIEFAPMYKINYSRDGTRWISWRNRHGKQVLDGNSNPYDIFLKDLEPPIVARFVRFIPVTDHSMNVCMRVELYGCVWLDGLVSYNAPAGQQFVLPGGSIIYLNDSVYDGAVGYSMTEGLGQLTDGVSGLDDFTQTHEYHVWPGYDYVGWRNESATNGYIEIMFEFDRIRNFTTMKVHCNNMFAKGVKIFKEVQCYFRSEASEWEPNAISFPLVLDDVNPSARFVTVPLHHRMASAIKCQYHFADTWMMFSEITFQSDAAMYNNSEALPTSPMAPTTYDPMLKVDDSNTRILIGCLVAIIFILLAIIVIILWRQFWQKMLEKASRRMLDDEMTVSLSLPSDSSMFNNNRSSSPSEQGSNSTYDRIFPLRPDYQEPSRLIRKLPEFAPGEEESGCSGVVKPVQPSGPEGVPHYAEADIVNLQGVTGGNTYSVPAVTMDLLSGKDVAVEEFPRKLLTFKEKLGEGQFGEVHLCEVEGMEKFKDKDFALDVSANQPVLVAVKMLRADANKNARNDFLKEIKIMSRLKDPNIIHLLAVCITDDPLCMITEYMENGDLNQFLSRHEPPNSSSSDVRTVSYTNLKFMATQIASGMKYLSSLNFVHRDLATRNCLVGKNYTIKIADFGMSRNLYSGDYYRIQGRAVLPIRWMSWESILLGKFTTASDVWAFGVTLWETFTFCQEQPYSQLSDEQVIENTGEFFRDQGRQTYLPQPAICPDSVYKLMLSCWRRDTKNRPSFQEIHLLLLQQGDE
STK25 (human), sequence (O00506 whole entry, looked up): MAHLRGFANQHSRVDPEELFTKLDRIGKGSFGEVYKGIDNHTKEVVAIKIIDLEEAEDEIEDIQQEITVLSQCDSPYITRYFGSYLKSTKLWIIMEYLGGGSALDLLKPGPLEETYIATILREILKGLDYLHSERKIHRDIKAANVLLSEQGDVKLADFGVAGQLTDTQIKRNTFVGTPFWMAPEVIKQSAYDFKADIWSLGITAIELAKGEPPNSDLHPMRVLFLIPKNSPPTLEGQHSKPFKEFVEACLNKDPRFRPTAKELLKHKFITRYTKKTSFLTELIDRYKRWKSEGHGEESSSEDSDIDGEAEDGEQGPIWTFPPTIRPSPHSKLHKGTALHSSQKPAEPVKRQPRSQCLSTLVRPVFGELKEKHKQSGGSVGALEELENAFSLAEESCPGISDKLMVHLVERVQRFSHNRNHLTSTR

Compound | residual activity [2] [%] | residual activity [3] [%] | residual activity [4] [%] | residual activity [5] [%] | residual activity [6] [%] | residual activity [8] [%] | residual activity [9] [%] | residual activity [10] [%] | residual activity [11] [%] | residual activity [12] [%] | residual activity [13] [%] | residual activity [15] [%] | residual activity [16] [%] | residual activity [17] [%] | residual activity [18] [%] | residual activity [19] [%] | residual activity [20] [%] | residual activity [21] [%] | residual activity [22] [%] | residual activity [24] [%] | other results
COc1ccc(CNC(=O)Nc2ncc([N+](=O)[O-])s2)cc1 | 100 | 88.1 | 88.9 | 104 | 97.7 | 101 | 98.6 | 95.4 | 94.1 | 96.4 | 101 | 99.8 | 100 | 98.9 | 109 | 104 | 100 | 98.6 | 91.9 | 13.5 | residual activity [1]: 102%; residual activity [7]: 100%; residual activity [14]: 91.1%; residual activity [23]: 96.9%; residual activity [25]: 100%; residual activity [26]: 97.8%; residual activity [27]: 96.6%; residual activity [28]: 102%; residual activity [29]: 97.4%; residual activity [30]: 99.5%; residual activity [31]: 102%; residual activity [32]: 101%; residual activity [33]: 95.9% and 97.3%; residual activity [34]: 104%; residual activity [35]: 108%; residual activity [36]: 96.6%; residual activity [37]: 103%; residual activity [38]: 98.9%; residual activity [39]: 90.8%
CN([C@@H](Cc1ccc(OS(=O)(=O)c2cccc3cnccc23)cc1)C(=O)N1CCN(c2ccccc2)CC1)S(=O)(=O)c1cccc2cnccc12 | 96.9 | 100 | 101 | 95.6 | 98.9 | 91.3 | 91.6 | 103 | 98.2 | 99.5 | 108 | 95.4 | 97.3 | 110 | 99.6 | 102 | 98 | 98.8 | 110 | 99.8 | residual activity [40]: 102%; residual activity [41]: 98.8%; residual activity [14]: 102%; residual activity [25]: 110%; residual activity [26]: 102%; residual activity [27]: 94.8%; residual activity [28]: 106%; residual activity [29]: 98.1%; residual activity [30]: 100%; residual activity [31]: 99.1%; residual activity [32]: 99.3%; residual activity [33]: 84.2% and 93.6%; residual activity [34]: 91%; residual activity [35]: 95.4%; residual activity [36]: 102%; residual activity [37]: 106%; residual activity [38]: 86%; residual activity [39]: 97.4%
Nc1nccc(-c2c(-c3ccc(F)cc3)ncn2C2CCNCC2)n1 | 107 | 87.1 | 99.9 | 103 | 110 | 94.2 | 101 | 101 | 99.8 | 102 | 99.3 | 87.8 | 98.6 | 85.7 | 101 | 93 | 99.3 | 99.8 | 97.6 | 97.5 | residual activity [1]: 93%; residual activity [7]: 91.5%; residual activity [40]: 102%; residual activity [23]: 83%; residual activity [42]: 100%; residual activity [25]: 101%; residual activity [26]: 83.1%; residual activity [27]: 99.5%; residual activity [28]: 12.1%; residual activity [29]: 104%; residual activity [30]: 96.9%; residual activity [31]: 76.9%; residual activity [32]: 97.8%; residual activity [33]: 88.2% and 97.7%; residual activity [35]: 114%; residual activity [36]: 94%; residual activity [37]: 94.8%; residual activity [38]: 107%; residual activity [39]: 92.9%

— the kinase profiling compilation of Christmann-Franck et al. (2016)
